The values below are quoted from earlier work in patent US20200289459A1, “LIQUID DOSAGE FORMS, METHODS OF MAKING AND USE” (CANOPY GROWTH CORPORATION, priority 2017, published 2020).

For data set [1], the system named is α2-adrenergic receptor.
Data set [2] has as its system locomotor suppression, catalepsy, hypothermia and analgesia. As to conditions: up to 80 mg/kg.
Data set [3] concerns the target CB1 receptor (Homo sapiens, UniProt P21554).
Data set [4] has as its target T1, 5-HT1A receptor (Homo sapiens, UniProt P08908).
T1 sequence (P08908 1-422): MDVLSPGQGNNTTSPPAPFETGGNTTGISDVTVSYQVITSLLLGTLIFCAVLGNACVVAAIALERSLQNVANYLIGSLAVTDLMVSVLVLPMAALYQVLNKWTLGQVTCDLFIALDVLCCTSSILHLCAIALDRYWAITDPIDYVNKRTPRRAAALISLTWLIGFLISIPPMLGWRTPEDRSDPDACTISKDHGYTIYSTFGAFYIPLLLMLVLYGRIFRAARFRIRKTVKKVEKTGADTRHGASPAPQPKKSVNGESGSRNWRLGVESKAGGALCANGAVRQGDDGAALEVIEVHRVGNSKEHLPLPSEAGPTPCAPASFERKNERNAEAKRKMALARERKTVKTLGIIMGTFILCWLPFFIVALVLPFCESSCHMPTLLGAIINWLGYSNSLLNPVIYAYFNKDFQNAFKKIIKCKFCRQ

For data set [5], the target named is CB2 receptor (Homo sapiens, UniProt P34972).
Sequence of CB2 receptor (P34972 whole entry): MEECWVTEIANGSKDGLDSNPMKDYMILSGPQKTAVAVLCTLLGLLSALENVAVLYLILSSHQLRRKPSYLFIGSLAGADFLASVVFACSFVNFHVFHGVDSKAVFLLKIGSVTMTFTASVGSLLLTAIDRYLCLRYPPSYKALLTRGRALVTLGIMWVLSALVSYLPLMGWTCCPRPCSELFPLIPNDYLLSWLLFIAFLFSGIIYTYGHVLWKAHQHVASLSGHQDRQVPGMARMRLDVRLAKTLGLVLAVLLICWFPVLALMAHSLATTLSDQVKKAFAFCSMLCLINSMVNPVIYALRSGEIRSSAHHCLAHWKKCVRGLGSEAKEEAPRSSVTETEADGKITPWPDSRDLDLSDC

Sequence of CB1 receptor (P21554 whole entry): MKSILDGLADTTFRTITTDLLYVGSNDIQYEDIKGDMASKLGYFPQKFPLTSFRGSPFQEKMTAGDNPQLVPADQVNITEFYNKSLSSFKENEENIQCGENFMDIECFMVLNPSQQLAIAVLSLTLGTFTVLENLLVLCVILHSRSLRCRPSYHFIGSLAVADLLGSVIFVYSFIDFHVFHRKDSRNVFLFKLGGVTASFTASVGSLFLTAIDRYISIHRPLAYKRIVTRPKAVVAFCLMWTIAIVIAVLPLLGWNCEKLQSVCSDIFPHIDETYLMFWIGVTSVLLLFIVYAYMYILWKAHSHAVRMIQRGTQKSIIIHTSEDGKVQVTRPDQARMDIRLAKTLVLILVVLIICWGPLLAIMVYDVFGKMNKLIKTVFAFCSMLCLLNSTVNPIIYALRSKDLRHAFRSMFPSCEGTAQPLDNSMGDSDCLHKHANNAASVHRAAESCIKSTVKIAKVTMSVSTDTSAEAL

With `CCCCCc1cc(O)c(C/C=C(\C)CCC=C(C)C)c(O)c1` [CBG, Cannabigerol], the “affinity as α2-adrenergic receptor agonist” value in data set [1] is listed as “high affinity”. Moreover, in data set [2], the “effect in the mouse tetrad test of cannabimimetic activity” value is “without effect”. Besides, the “affinity as CB1 receptor antagonist” value in data set [3] is listed as “low affinity”. In addition, the “affinity as 5-HT1A receptor antagonist” value in data set [4] is given as “moderate affinity”. Also, in data set [5], the “binding to the CB2 receptor” value was “antagonist”.
